# Data published in ChEMBL document CHEMBL5725362, “Long chain base sphingosine kinase inhibitors” (2017).
# Target: Sphingosine kinase 1 (Homo sapiens, UniProt Q9NYA1)
# Assay: Scintillation Proximity Assay: SphK activity was measured by a scintillation proximity assay as previously described [1], the disclosure of which is incorporated herein. Briefly, recombinant SphK1 or SphK2 were expressed in Sf9 insect cells, crude homogenates were prepared and incubated in 96 well FlashPlates (Perkin-Elmer) in a buffer containing D-erythro-sphingosine and γ-[33P]ATP. The [33P]S1P …
# Sphingosine kinase 1, sequence (Q9NYA1 whole entry): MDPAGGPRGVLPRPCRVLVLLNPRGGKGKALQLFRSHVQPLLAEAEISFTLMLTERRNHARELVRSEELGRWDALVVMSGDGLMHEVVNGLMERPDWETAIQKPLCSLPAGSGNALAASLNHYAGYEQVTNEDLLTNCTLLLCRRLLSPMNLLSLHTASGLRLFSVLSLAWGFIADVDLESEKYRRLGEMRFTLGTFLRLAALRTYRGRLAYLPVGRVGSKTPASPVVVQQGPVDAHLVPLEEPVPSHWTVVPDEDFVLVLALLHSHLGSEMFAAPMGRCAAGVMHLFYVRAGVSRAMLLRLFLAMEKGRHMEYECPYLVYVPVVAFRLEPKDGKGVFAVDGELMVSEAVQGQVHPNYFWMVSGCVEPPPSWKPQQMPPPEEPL
structure (smiles),measurement,value
N=C(N)C1(c2nc(-c3cccc(CCCCCCOCC4CCCCC4)c3)no2)CC1,Ki,< 1 µM
CCCCCCCCCCCc1cccc(-c2nc(C3(C(=N)N)CC3)n[nH]2)c1,Ki,< 1 µM
N=C(N)C1(c2nnc(-c3cccc(CCCCCCOCC4CCCCC4)c3)o2)CC1,Ki,< 1 µM
CCCCCCCCCCCc1cccc(-c2nnc(C3(C(=N)N)CC3)o2)c1,Ki,< 1 µM
CCCCCCCCCCCc1ccc(F)c(-c2nnc(C3(C(=N)N)CC3)o2)c1,Ki,< 1 µM
CCCCCCCCCCc1ccc(/C=C/C2(C(=N)N)CC2)cc1,Ki,> 10 µM
N=C(N)C1(c2nc(-c3cccc(CCc4cccc(CCC5CCCCC5)c4)c3)no2)CC1,Ki,< 1 µM
CCCCCCCCCCCc1cc(-c2nnc(C3(C(=N)N)CC3)o2)ccc1F,Ki,< 1 µM
CCCCCCCCCCCc1cc(-c2noc(C3(C(=N)N)CC3)n2)ccc1C,Ki,< 1 µM
N=C(N)C1(c2nnc(-c3ccc(CCCCCCCOCC4CCCCC4)cc3)o2)CC1,Ki,< 1 µM
CCCCCCCCCCCc1ccc(C)c(-c2nnc(C3(C(=N)N)CC3)o2)c1,Ki,< 1 µM
N=C(N)N1CCC[C@H]1c1nc(-c2ccc(CS(=O)(=O)c3ccccc3)cc2)no1,Ki,> 10 µM
CCCCCCCCCCCCc1cccc(-c2noc(C3(C(=N)N)CC3)n2)c1,Ki,< 1 µM
CCCCCCCCCCCc1cc(-c2nnc(C3(C(=N)N)CC3)o2)ccc1C,Ki,< 1 µM
